# Laboratory results: article PMC8484140 (Targeted Oncology, 2021)
# Entries after “also recorded” stand apart in the source; their conditions may differ.
# Experiments:
# [1] = system: estrogen receptor-positive advanced breast cancer; details: entinostat plus exemestane; prolonged from 19.8; cited from earlier work
# [2] = Plasma pharmacokinetics of entinostat; format: in vivo, human
# [3] = Safety evaluation; format: in vivo, human
# [4] = female, human, plasma, po, 3 mg
# [5] = female, human, plasma, po, 3 mg/week
# [6] = female, human, plasma, po, 5 mg
# [7] = female, human, plasma, po, 5 mg/week
# [8] = female, human, plasma, po, 7 mg
# [9] = female, human, plasma, po, 7 mg/week
# [10] = Stage II, 3 mg/week + exemestane 25 mg/day, n=2
# [11] = Stage II, 5 mg/week + exemestane 25 mg/day, n=14
compound,measurement,setting,value
Nc1ccccc1NC(=O)c1ccc(CNC(=O)OCc2cccnc2)cc1 [Entinostat],Overall survival (OS),[1],28.1 months
same,"Dose dependence of exposure (Cmax, AUC)",[2]; 3–7 mg,increased dose proportionally; also recorded: linear relationship between AUC0-168 and entinostat dose
same,Tmax,"[2]; Day 22, 5 mg/week oral, N=12, median (Min., Max.)","0.50 (0.25, 8.00) h"
same,Tmax,"[2]; female, human, plasma, oral",~0.5 h
same,half-life,"[2]; female, human, plasma, oral",38.3 to 65.3 h
same,AUC(0-inf),[2]; [4],572 ± 122 ng·h/mL
same,Cmax,[2]; [4],49.2 ± 8.38 ng/mL
same,half-life,[2]; [4],38.3 h
same,AUC(0-inf),[2]; [5],609 ± 44.3 ng·h/mL
same,Cmax,[2]; [5],55.7 ± 38.2 ng/mL
same,Tmax,[2]; [5],0.47 h
same,half-life,[2]; [5],65.3 h
same,AUC(0-inf),[2]; [6],1070 ± 364 ng·h/mL
same,Cmax,[2]; [6],101 ± 62.1 ng/mL
same,half-life,[2]; [6],51.7 h
same,AUC(0-inf),[2]; [7],1310 ± 349 ng·h/mL
same,Cmax,[2]; [7],107 ± 63.2 ng/mL
same,half-life,[2]; [7],61.9 h
same,AUC(0-inf),[2]; [8],1380 ± 206 ng·h/mL
same,Cmax,[2]; [8],154 ± 39.2 ng/mL
same,Tmax,[2]; [8],0.55 h
same,half-life,[2]; [8],48.1 h
same,AUC(0-inf),[2]; [9],1650 ± 452 ng·h/mL
same,Cmax,[2]; [9],122 ± 76.1 ng/mL
same,half-life,[2]; [9],56.2 h
same,Tolerability of entinostat in combination with exemestane,[3]; Chinese patients,well tolerated
same,"AKP elevation, entinostat-related AE of all grades",[3]; [10],0 No. (%)
same,"ALT elevation, entinostat-related AE of all grades",[3]; [10],0 No. (%)
same,"AST elevation, entinostat-related AE of all grades",[3]; [10],0 No. (%)
same,"Abdominal pain, entinostat-related AE of all grades",[3]; [10],0 No. (%)
same,"Anemia, entinostat-related AE of all grades",[3]; [10],0 No. (%)
same,"Back pain, entinostat-related AE of all grades",[3]; [10],0 No. (%)
same,"Chest pain, entinostat-related AE of all grades",[3]; [10],0 No. (%)
same,"Creatine increase, entinostat-related AE of all grades",[3]; [10],0 No. (%)
same,"Creatinine phosphokinase increase, entinostat-related AE of all grades",[3]; [10],0 No. (%)
same,"Debilitation, entinostat-related AE of all grades",[3]; [10],0 No. (%)
same,"Diarrhea, entinostat-related AE of all grades",[3]; [10],0 No. (%)
same,"Fatigue, entinostat-related AE of all grades",[3]; [10],0 No. (%)
same,"Flatulence, entinostat-related AE of all grades",[3]; [10],0 No. (%)
same,"Headache, entinostat-related AE of all grades",[3]; [10],0 No. (%)
same,"Hypoalbuminemia, entinostat-related AE of all grades",[3]; [10],0 No. (%)
same,"Hypocalcemia, entinostat-related AE of all grades",[3]; [10],0 No. (%)
same,"Hypokalemia, entinostat-related AE of all grades",[3]; [10],0 No. (%)
same,"Hypoproteinemia, entinostat-related AE of all grades",[3]; [10],0 No. (%)
same,"LDH increase, entinostat-related AE of all grades",[3]; [10],0 No. (%)
same,"Leukopenia, entinostat-related AE of all grades",[3]; [10],0 No. (%)
same,"Limb pain, entinostat-related AE of all grades",[3]; [10],0 No. (%)
same,"Nausea, entinostat-related AE of all grades",[3]; [10],0 No. (%)
same,"Neutropenia, entinostat-related AE of all grades",[3]; [10],2 (100) No. (%)
same,"Palpitation, entinostat-related AE of all grades",[3]; [10],0 No. (%)
same,"Serum Ca^2+ decrease, entinostat-related AE of all grades",[3]; [10],0 No. (%)
same,"Serum Na+ decrease, entinostat-related AE of all grades",[3]; [10],0 No. (%)
same,"Serum albumin decrease, entinostat-related AE of all grades",[3]; [10],0 No. (%)
same,"Serum phosphate decrease, entinostat-related AE of all grades",[3]; [10],0 No. (%)
same,"Serum urea increase, entinostat-related AE of all grades",[3]; [10],0 No. (%)
same,"Thrombocytopenia, entinostat-related AE of all grades",[3]; [10],0 No. (%)
same,"Γ-GT elevation, entinostat-related AE of all grades",[3]; [10],0 No. (%)
same,"α-HBDH elevation, entinostat-related AE of all grades",[3]; [10],0 No. (%)
same,Grade 3 AE,"[3]; Stage II, 3 mg/week group + exemestane",no grade 3 AE occurred
same,CTCAE grade 3 arrhythmia requiring medical care,"[3]; Stage II, 5 mg entinostat group, 1/14",7.1%
same,"AKP elevation, entinostat-related AE of all grades",[3]; [11],4 (28.6) No. (%)
same,"ALT elevation, entinostat-related AE of all grades",[3]; [11],0 No. (%)
same,"AST elevation, entinostat-related AE of all grades",[3]; [11],2 (14.3) No. (%)
same,"Abdominal pain, entinostat-related AE of all grades",[3]; [11],0 No. (%)
same,"Anemia, entinostat-related AE of all grades",[3]; [11],5 (35.7) No. (%)
same,"Back pain, entinostat-related AE of all grades",[3]; [11],0 No. (%)
same,"Chest pain, entinostat-related AE of all grades",[3]; [11],0 No. (%)
same,"Creatine increase, entinostat-related AE of all grades",[3]; [11],4 (28.6) No. (%)
same,"Creatinine phosphokinase increase, entinostat-related AE of all grades",[3]; [11],6 (42.9) No. (%)
same,"Debilitation, entinostat-related AE of all grades",[3]; [11],0 No. (%)
same,"Diarrhea, entinostat-related AE of all grades",[3]; [11],3 (21.4) No. (%)
same,"Fatigue, entinostat-related AE of all grades",[3]; [11],0 No. (%)
same,"Flatulence, entinostat-related AE of all grades",[3]; [11],0 No. (%)
same,"Headache, entinostat-related AE of all grades",[3]; [11],0 No. (%)
same,"Hypoalbuminemia, entinostat-related AE of all grades",[3]; [11],3 (21.4) No. (%)
same,"Hypocalcemia, entinostat-related AE of all grades",[3]; [11],2 (14.3) No. (%)
same,"Hypokalemia, entinostat-related AE of all grades",[3]; [11],2 (14.3) No. (%)
same,"Hypoproteinemia, entinostat-related AE of all grades",[3]; [11],3 (21.4) No. (%)
same,"LDH increase, entinostat-related AE of all grades",[3]; [11],2 (14.3) No. (%)
same,"Leukopenia, entinostat-related AE of all grades",[3]; [11],10 (71.4) No. (%)
same,"Limb pain, entinostat-related AE of all grades",[3]; [11],2 (14.3) No. (%)
same,"Nausea, entinostat-related AE of all grades",[3]; [11],0 No. (%)
same,"Neutropenia, entinostat-related AE of all grades",[3]; [11],10 (71.4) No. (%)
same,"Palpitation, entinostat-related AE of all grades",[3]; [11],0 No. (%)
same,"Serum Ca^2+ decrease, entinostat-related AE of all grades",[3]; [11],2 (14.3) No. (%)
same,"Serum Na+ decrease, entinostat-related AE of all grades",[3]; [11],2 (14.3) No. (%)
same,"Serum albumin decrease, entinostat-related AE of all grades",[3]; [11],2 (14.3) No. (%)
same,"Serum phosphate decrease, entinostat-related AE of all grades",[3]; [11],7 (50) No. (%)
same,"Serum urea increase, entinostat-related AE of all grades",[3]; [11],2 (14.3) No. (%)
same,"Thrombocytopenia, entinostat-related AE of all grades",[3]; [11],6 (42.9) No. (%)
same,"Γ-GT elevation, entinostat-related AE of all grades",[3]; [11],3 (21.4) No. (%)
same,"α-HBDH elevation, entinostat-related AE of all grades",[3]; [11],2 (14.3) No. (%)
same,Number of CTCAE grade ≥ 3 AEs,"[3]; Stage II, 5 mg/week group + exemestane",38
